Tests used:
CYP2B6 = target: T1, CYP2B6 (Homo sapiens, UniProt P20813); assay: Direct CYP inhibition assay, pooled human liver microsomes, LC-MS/MS; assay type: in vitro ADME; conditions: pooled HLMs, up to 50 μM, bupropion substrate
T1 construct: from tissue; host or cells: pooled human liver microsomes
T1 sequence (P20813 1-491): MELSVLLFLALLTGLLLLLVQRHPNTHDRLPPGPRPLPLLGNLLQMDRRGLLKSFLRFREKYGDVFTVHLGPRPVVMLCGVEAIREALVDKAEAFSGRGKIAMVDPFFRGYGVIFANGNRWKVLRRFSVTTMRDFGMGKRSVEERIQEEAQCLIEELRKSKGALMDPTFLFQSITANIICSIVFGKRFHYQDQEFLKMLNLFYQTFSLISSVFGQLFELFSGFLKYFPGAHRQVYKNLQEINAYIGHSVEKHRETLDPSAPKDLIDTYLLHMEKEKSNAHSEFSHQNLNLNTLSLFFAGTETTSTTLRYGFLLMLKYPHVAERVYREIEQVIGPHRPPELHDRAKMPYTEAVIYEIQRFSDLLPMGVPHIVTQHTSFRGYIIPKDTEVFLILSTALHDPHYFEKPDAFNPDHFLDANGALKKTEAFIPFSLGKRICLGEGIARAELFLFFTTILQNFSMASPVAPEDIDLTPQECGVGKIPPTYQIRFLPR
Procedure: (§1) Reactions were incubated in eight-well strips placed in an 8 × 12 racks (1.2 ml; VWR, Emeryville, CA). The incubation mixtures (final volume, 200 μL) contained 0.2 mg/mL HLMs, 0.1 M phosphate buffer (pH 7.4), 1 mM NADPH, and various CYP isoform-specific substrate cocktail sets (A set: phenacetin, coumarin, amodiaquine, S-mephenytoin, dextromethorphan, and midazolam; B set: bupropion, tolbutamide, chlorzoxazone, and testosterone). […] Substrates were dissolved and serially diluted with acetonitrile to the required concentration in all experiments. […] The reactions were incubated at 37 °C in a shaking water bath. The reactions were terminated by placing the incubation tubes on ice, adding 200 μL of cold acetonitrile containing carbamazepine (100 nM) and 4-methylumbelliferone (500 nM) as an internal standard after 10 min, and agitating with a vortex mixer before centrifugation. The samples for each enzyme assay were centrifuged at 3,000 × g for 20 min at 4 °C, and supernatants of the individual reaction samples and pooled cocktail incubation samples (A set: B set, 1:1) were analysed using LC-MS/MS.
(§2) Sample injection volume was 10 μL, and separation was performed on an Atlantis™ dC18 column (2.1 × 50 mm i.d., 3 μm; Waters, Milford, MA, USA) and Luna™5u C18 column (2.0 × 30 mm i.d.; Phenomenex, Torrance, CA, USA) with a SecurityGuard™ C18 guard column (2.0 × 4.0 mm i.d.; Phenomenex, Torrance, CA, USA) maintained at 30 °C. The column was pre-equilibrated in 100% v/v solvent A (deionized water containing 0.1% v/v formic acid)/0% v/v solvent B (acetonitrile containing 0.1% v/v formic acid) at a flow rate of 0.4 ml/min. […] Quadrupoles Q1 and Q3 were set on unit resolution. The samples were analysed via multiple reaction monitoring (MRM) and enhanced product ion (EPI) scan mode. The turbo ion spray interface was operated in the positive ion mode at 5,500 V. The operating conditions were determined as follows: ion source temperature, 600 °C; nebulising gas flow, 50 L/min; auxiliary gas flow, 4.0 L/min; curtain gas flow, 20 L/min; collision gas (nitrogen) pressure 3.6 × 10^−5 Torr. Nitrogen gas was used for CUR, CAD, and NEB. The MRM transitions, collision energies and retention time were determined for each metabolite. The samples were analysed via MRM as described in our previous study. The scan dwell time was set at 0.08 s for every channel. Data acquisition and analysis was performed using the Analyst™ software (version 1.5.2; Applied Biosystems, Foster City, CA, USA).

CYP2C9 = target: T2, CYP2C9 (Homo sapiens, UniProt P11712); assay: as above; assay type: in vitro ADME; conditions: pooled HLMs, up to 50 μM, tolbutamide substrate
T2 construct: from tissue; host or cells: pooled human liver microsomes
Procedure: as §1, §2

T2 sequence (P11712 whole entry): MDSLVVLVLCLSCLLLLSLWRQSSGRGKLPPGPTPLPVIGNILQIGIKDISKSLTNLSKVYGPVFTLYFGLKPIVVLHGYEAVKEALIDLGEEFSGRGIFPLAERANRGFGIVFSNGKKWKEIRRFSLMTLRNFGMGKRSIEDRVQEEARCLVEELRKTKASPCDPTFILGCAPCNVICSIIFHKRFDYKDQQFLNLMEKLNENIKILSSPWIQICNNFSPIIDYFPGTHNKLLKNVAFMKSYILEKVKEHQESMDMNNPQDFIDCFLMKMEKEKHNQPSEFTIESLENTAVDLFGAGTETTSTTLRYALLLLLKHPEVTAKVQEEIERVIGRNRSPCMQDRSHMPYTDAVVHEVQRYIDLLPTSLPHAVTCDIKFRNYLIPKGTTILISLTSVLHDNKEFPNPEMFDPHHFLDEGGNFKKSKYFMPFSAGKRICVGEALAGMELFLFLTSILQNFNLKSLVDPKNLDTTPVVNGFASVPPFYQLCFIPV

In the case of `O=[N+]([O-])c1ccc(CNc2nc(NCc3cccc(C(F)(F)F)c3)nc3[nH]cnc23)cc1` [TNP, N^6-[(4-nitrophenyl)methyl]-N^2-[[3-(trifluoromethyl)phenyl]methyl]-9H-purine-2,6-diamine], the “inhibitory effect on CYP2B6” value (CYP2B6) is reported as “no inhibitory effect” and the “inhibitory effect on CYP2C9” value (CYP2C9) is reported as “no inhibitory effect”.

From publication PMC8667942 (Journal of Enzyme Inhibition and Medicinal Chemistry, 2021)
